US20080305520A9, “Mechanosensitive ion channels and methods of use” (priority 2004, published 2008)
Entries after “also recorded” stand apart in the source; their conditions may differ.

Assays:
[1] = tested on: [Ca^2+]i fluctuations in migrating PC3 cells; experiment: Fura-2 Ca2+ imaging of [Ca2+]i fluctuations in migrating PC3 cells; assay type: cell-based, human; details: for sustained and transient [Ca^2+]i oscillations: same concentrations that blocked/reduced MscCa activity and PC3 cell migration, 9 cells, 3 experiments
Description: Two distinct types of [Ca^2+]i fluctuations were observed; a sustained Ca^2+)1 that increased from the front of the cell to the rear and was maintained for the duration of the locomotion cycle (up to 3 hours) measured from tether formation to tether release; and a fast transient [Ca2+i wave that spread rapidly through out the cell and lasted <1 minute (the time interval between frames) with an average frequency of 6 waves in 30 minutes. Both sustained and transients [Ca2+]i fluctuations were associated with moving cells. All three anti-MscCa agents described above, abolished both forms of [Ca^2+]i oscillations at the same concentrations that blocked/reduced MscCa activity and PC3 cell migration (9 cells, 3 experiments). Again, whereas with Gd and GsmTx4 the block was reversible, there was no recovery after the anti-TRPCI Ab washout.
(§1) Time-lapse videomicroscopy and Ca 2-imaging were conducted as follows. Cell migration was monitored by time-lapse videomicroscopy using Nomarski optics with an Epifluorescent microscope (TE 200). The time-lapse images were acquired and saved at 5 minute intervals using Metafluor software. Calcium imaging assays were carried out on cells previously loaded with Fura-2 AM (5 tm for 30 minutes). Time-lapse fluorescence images were consecutively acquired at 340 and 380 wavelengths and transmission (DIC) at intervals of I minute using Metafluor. Data analysis was carried out using Metamorph (Version 6. 1) and Excel] 2000. Conversion of pixels to gm based on a calibrated slide to represent the cell trajectories in the field.
(§2) The day before transfection cells were seeded at 50-60% density on sterile coverslips in a 6 well plate in culture medium without antibiotic. Transfection of 100 nM of double stranded siRNA Cy3 labeled per well (Ambion #731 1 and negative control, Ambion, Austin, TX was carried using Lipofectamine 2000 (Invitrogen, Carlsbad, CA) according to the manufacturer's instructions for siRNA transfections. Cells were stored in the incubator after the addition of the complexes and 7% FCS medium without antibiotic was added after the first 6 hours of transfection. The next day the supernatant was removed and normal culture medium replaced. Cells were tested by patch clamp and videomicroscopy during the next 48-72 hours, using the patch clamp and videomicroscopy methods described above in examples 4 and 5. […] The foregoing detailed description and examples have been given for clarity of understanding only. No unnecessary limitations are to be understood therefrom. The invention is not limited to the exact details shown and described, for variations obvious to one skilled in the art will be included within the invention defined by the claims.

[2] = tested on: fish epithelial keratocyte; details: Lee et al., Nature 400 (1999), cited from earlier work
MscCa = experiment: Pressure-clamp cell-attached patch recording of MscCa currents in Xenopus oocytes; assay type: cell-based; details: oocyte cell-attached patches; EGTA left out of pipette solution
MscCa in PC3 cells = target: T1, MscCa in PC3 cells (Homo sapiens, UniProt P48995); experiment: Cell-attached patch-clamp recording of MscCa activity in PC3 cells; assay type: cell-based
T1 construct: host or cells: PC3 human prostate tumor cells
Description: PC3 cell lines were grown in RPM1 1640 medium with 25 mM Hepes and glutamine, supplemented with 7% fetal calf serum, I mM sodium pyruvate, 4.5 g/L glucose, penicillin G (10,000 U/ml) and streptomycin sulfate (10,000 tg/ml) at 37° C. in a humidified 95% 02-5% C02 atmosphere. For patch-lamp studies, cells were seeded at low density on sterile coverslips placed in 33 mm culture dishes and tested during the next 2 - 5 days. Patch clamp recording was conducted as follows. Standard cell-attached patch-clamp recording was used to record single channel currents. The pipettes were made from thin-walled borosilicate glass (World Precision Instruments, Stevenage, UK) with an outside tip diameter of -2 Wm. Immediately prior to patch clamping, a cover slip was removed from the culture dish, glued with dots of silcone to a 35 mm culture, and placed in a microscope stage holder. Cells were visualized with an IM35 Zeiss microscope with fluorescence and Normaski optics. A pressure-clamp (McBride, D.W., Jr. & Hamill, O. P., PflLigers Archiv. 421, 606-612 (1992)) was used to apply pressure and suction protocols to achieve the initial tight seal and stimulate MS channels. […] This voltage-dependent gating of the open channel is also a characteristic of the prototypical MscCa, native to the frog oocyte (Taglietti et al., J. Physiol., 407, 311 (1988)), identified as being formed by the transient receptor channel protein I (TRPCI). The current-voltage relationship of the prostate MscCa measured with a 100 mM K+, zero Ca^2+in the pipette solution indicates an inwardly rectifying single channel conductance (-70 pS chord conductance at -100 mV and 20 pS at 50 mV) (Fig. • SB) that is essentially identical to that of the oocyte MscCa indicating a common pore structure. […] In the “sustained mode” (SM), the channels remained open for the duration of stimulation (Fig. SC), while in the “transient mode” (TM) the channels closed rapidly (cO.5 s) (FIG. 5C). […]

prostate tumor cell = details: medium containing serum; Cancer Letters 145 (1999); cited from earlier work
PC3 cells = experiment: PC3 cell migration by time-lapse videomicroscopy; assay type: cell-based, human; details: for PC3 cell migration: one hour intervals before, during and after exposure; for reversibility of migration block with washout: up to 1 hour
Description: The effect of the three anti-MscCa agents on PC3 cell migration was tested using time-lapse videomicroscopy to record the trajectory of the migrating prostate tumor cells. Selected video frames were prepared at 15 minute intervals, showing a cluster of 7 PC3 cells as they migrate out from the cluster. […] All three agents blocked cell migration.
as §1, §2

prostate tumor cells = details: cited from earlier work
[3] = tested on: Ca^2+-activated K+channel; experiment: Delayed outward channel currents after MscCa activation, PC3 cell-attached patch; assay type: cell-based, human; details: 50 nM charybdotoxin in the pipette solution; 1 mM external Ca^2+
Description: PC3 cell lines were grown in RPM1 1640 medium with 25 mM Hepes and glutamine, supplemented with 7% fetal calf serum, I mM sodium pyruvate, 4.5 g/L glucose, penicillin G (10,000 U/ml) and streptomycin sulfate (10,000 tg/ml) at 37° C. in a humidified 95% 02-5% C02 atmosphere. For patch-lamp studies, cells were seeded at low density on sterile coverslips placed in 33 mm culture dishes and tested during the next 2 - 5 days. Patch clamp recording was conducted as follows. Standard cell-attached patch-clamp recording was used to record single channel currents. The pipettes were made from thin-walled borosilicate glass (World Precision Instruments, Stevenage, UK) with an outside tip diameter of -2 Wm. Immediately prior to patch clamping, a cover slip was removed from the culture dish, glued with dots of silcone to a 35 mm culture, and placed in a microscope stage holder. Cells were visualized with an IM35 Zeiss microscope with fluorescence and Normaski optics. […] The current-voltage relationship of the prostate MscCa measured with a 100 mM K+, zero Ca^2+in the pipette solution indicates an inwardly rectifying single channel conductance (-70 pS chord conductance at -100 mV and 20 pS at 50 mV) (Fig. • SB) that is essentially identical to that of the oocyte MscCa indicating a common pore structure. […]

T1 sequence (P48995 whole entry): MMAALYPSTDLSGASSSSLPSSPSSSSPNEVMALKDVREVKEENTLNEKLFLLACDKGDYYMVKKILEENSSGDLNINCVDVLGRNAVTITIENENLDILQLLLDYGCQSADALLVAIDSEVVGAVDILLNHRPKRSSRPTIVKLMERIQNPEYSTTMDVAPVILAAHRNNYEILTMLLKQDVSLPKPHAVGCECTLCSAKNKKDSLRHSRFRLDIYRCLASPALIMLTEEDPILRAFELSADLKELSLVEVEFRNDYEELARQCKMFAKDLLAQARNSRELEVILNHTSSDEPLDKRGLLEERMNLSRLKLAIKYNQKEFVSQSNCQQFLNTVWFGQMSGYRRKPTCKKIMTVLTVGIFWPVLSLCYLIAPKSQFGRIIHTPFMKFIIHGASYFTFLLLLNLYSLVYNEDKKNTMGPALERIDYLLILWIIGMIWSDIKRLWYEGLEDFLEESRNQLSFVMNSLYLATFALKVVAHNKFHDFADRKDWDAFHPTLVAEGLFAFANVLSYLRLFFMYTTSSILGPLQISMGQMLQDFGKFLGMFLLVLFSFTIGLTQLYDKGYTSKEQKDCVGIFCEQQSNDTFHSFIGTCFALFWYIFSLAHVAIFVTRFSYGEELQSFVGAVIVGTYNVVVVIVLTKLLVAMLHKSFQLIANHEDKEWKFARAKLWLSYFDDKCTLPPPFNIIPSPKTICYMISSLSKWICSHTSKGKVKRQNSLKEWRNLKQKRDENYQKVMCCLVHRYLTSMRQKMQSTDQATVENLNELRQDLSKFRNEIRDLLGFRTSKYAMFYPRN

[Gd+3] [Gd^3+, gadolinium ion]
sustained and transient [Ca^2+]i oscillations [1]: abolished
reversibility of block of [Ca^2+]i oscillations after washout [1]: reversible
Ca^2+ transients [2]: abolishes
cell migration ([2]; prevents rear detachment): inhibiting
block of native and TRPC1-expressed MscCa (MscCa): equally effective in blocking
MscCa activity (MscCa in PC3 cells; Gd^3+ also included in the pipette-tip solution, 20 out of 20 patches): abolished
MscCa patch current (channel block) (MscCa in PC3 cells; Gd^3+ in back solution at 5 µM, -3 minutes after tight seal, pressure steps): block the channel
prostate tumor cell motility (prostate tumor cell): enhanced rather than inhibited
PC3 cell migration (PC3 cells; Gd^3+): blocked
reversibility of migration block with washout (PC3 cells): reversible

NC1=N[C@H](O)[C@H]2[C@H]3O[C@]4(O)O[C@@H]([C@@H](O)[C@@]2(N1)[C@@H]4O)[C@]3(O)CO [tetrodotoxin]
invasiveness (prostate tumor cells): reduce invasiveness

GCLEFWWKCNPNDDKCCRPKLKCSKLFKLCNFSSG [GsmTx-4]
sustained and transient [Ca^2+]i oscillations [1]: abolished
reversibility of block of [Ca^2+]i oscillations after washout [1]: reversible
MscCa activity (MscCa in PC3 cells; 3 μM GsmTx-4 in pipette, SM or TM gating mode): blocked; also recorded: effective in blocking
PC3 cell migration (PC3 cells; GsMTx-4 3 μM): blocked
reversibility of migration block with washout (PC3 cells): reversible

charybdotoxin (QFTNVSCTTSKECWSVCQRLHNTSRGKCMNKKCRCYS)
delayed activation of outward channel currents after MscCa inward currents [3]: absent
